Data as given in US6825350B2, “Sulfonamide and sulfamide substituted imidazoquinolines and methods for the treatment of periodontal disease using these and other immune response modifiers” (3M Innovative Properties Company, priority 1999, dated 2004).
Where two headings read alike, the source gives them in different places.

Assays:
interferon (α) = assay: Cytokine induction in human cells: interferon (α) by ELISA; format: cell-based; conditions: human PBMCs, 18 to 24 hours incubation, ELISA of culture supernatant, read-out: Lowest Effective Concentration (μM) Interferon
[1] = system: tumor necrosis factor (α); assay: Cytokine induction in human cells: tumor necrosis factor (α) by ELISA; format: cell-based; conditions: human PBMCs, 18 to 24 hours incubation, ELISA of culture supernatant, read-out: Lowest Effective Concentration (μM) Tumor Necrosis Factor

SMILES | minimal effective concentration (interferon (α); Homo sapiens, PBMC) [µM] | minimal effective concentration ([1]; Homo sapiens, PBMC) [µM] | minimal effective concentration (interferon (α)) [µM] | minimal effective concentration [1] [µM]
COCCc1nc2c(N)nc3ccccc3c2n1CCCCNS(=O)(=O)c1ccc(Cl)s1 [Example 131] | 0.0001 | 1 |  | 
CCCCc1nc2c(N)nc3ccccc3c2n1CCCCNS(=O)(=O)c1ccc(I)cc1 [Example 46] | 0.37 | > 30 |  | 
CCCCc1nc2c(N)nc3ccccc3c2n1CCCCNS(=O)(=O)c1ccc(OC(F)(F)F)cc1 [Example 85] | 1 | > 10 |  | 
CCCCc1nc2c(N)nc3ccccc3c2n1CCCCNS(=O)(=O)c1ccc(C)c([N+](=O)[O-])c1 [Example 97] | 0.1 | 10 |  | 
CCCCc1nc2c(N)nc3ccccc3c2n1CCCCNS(=O)(=O)C(C)C [Example 38] | 0.0015 | 0.37 |  | 
COCCc1nc2c(N)nc3ccccc3c2n1CCCCNS(=O)(=O)N[C@H](C)c1ccccc1 [Example 226] | 0.0001 | 0.1 |  | 
COCCc1nc2c(N)nc3c(c2n1CCCCNS(=O)(=O)N(C)C)CCCC3 [Example 221] | 0.0001 | 1 |  | 
CCCCc1nc2c(N)nc3ccccc3c2n1CCNS(=O)(=O)c1cccc2ccccc12 [Example 31] | 1.11 | > 30 |  | 
CCCCc1nc2c(N)nc3c(c2n1CCCCNS(=O)(=O)Cc1ccccc1)CCCC3 [Example 205] | 0.0001 | 1 |  | 
COCCc1nc2c(N)nc3ccccc3c2n1CCCCNS(=O)(=O)Nc1ccccc1 [Example 224] | 0.0001 | 10 |  | 
CCCCc1nc2c(N)nc3ccccc3c2n1CCCCNS(=O)(=O)c1cccc2cccnc12 [Example 43] | 0.04 | > 30 |  | 
CCCCc1nc2c(N)nc3ccccc3c2n1CCCCNS(=O)(=O)c1ccc2c(c1)CN(C(=O)C(F)(F)F)CC2 [Example 102] | 0.001 | 10 |  | 
CCS(=O)(=O)NCCCCn1c(CCOC)nc2c(N)nc3c(c21)CCCC3 [Example 207] | 0.001 | 1 |  | 
COCCc1nc2c(N)nc3ccccc3c2n1CCCCNS(=O)(=O)Cc1ccccc1 [Example 113] | 0.0001 | > 10 |  | 
CCCCS(=O)(=O)NCCCCn1c(CCOC)nc2c(N)nc3ccccc3c21 [Example 117] | 0.0001 | 1 |  | 
CCCCc1nc2c(N)nc3ccccc3c2n1CCCCNS(=O)(=O)c1ccc(Cl)c([N+](=O)[O-])c1 [Example 86] | 0.01 | 1 |  | 
COCCc1nc2c(N)nc3ccccc3c2n1CCCCNS(=O)(=O)c1ccc(F)cc1 [Example 121] | 0.0001 | 10 |  | 
Nc1nc2c(c3c1ncn3CCCCNS(=O)(=O)c1ccccc1)CCCC2 [Example 58] | 3.33 | > 30 |  | 
CCCCc1nc2c(N)nc3ccccc3c2n1CCCCNS(=O)(=O)CCCC [Example 74] | 0.001 | 0.01 |  | 

SMILES | minimal effective concentration (interferon (α); Homo sapiens, PBMC) [µM] | minimal effective concentration ([1]; Homo sapiens, PBMC) [µM] | minimal effective concentration (interferon (α)) [µM] | minimal effective concentration [1] [µM]
COCCc1nc2c(N)nc3ccccc3c2n1CCCCNS(=O)(=O)c1cccc(Br)c1 [Example 184] | 0.0001 | 1 |  | 
Nc1nc2c(c3c1ncn3CCCCNS(=O)(=O)c1cccc3ccccc13)CCCC2 [Example 70] | > 30 | > 30 |  | 
COCCc1nc2c(N)nc3ccccc3c2n1CCCCNS(C)(=O)=O [Example 111] | 0.001 | 10 |  | 
CCCCc1nc2c(N)nc3c(c2n1CCCCNS(=O)(=O)c1cccs1)CCCC3 [Example 204] | 0.0001 | 1 |  | 
CCCCc1nc2c(N)nc3ccccc3c2n1CCCCNS(=O)(=O)c1ccc(C(C)(C)C)cc1 [Example 47] | 0.37 | > 30 |  | 
CCCCc1nc2c(N)nc3c(c2n1CCCCNS(=O)(=O)C(C)C)CCCC3 [Example 203] | 0.0001 | 1 |  | 
CCCCc1nc2c(N)nc3ccccc3c2n1CCCCNS(=O)(=O)c1c(C)cc(C)cc1C [Example 45] | 0.37 | > 30 |  | 
CCCCS(=O)(=O)NCCCCn1c(CCOC)nc2c(N)nc3c(c21)CCCC3 [Example 209] | 0.0001 | 0.1 |  | 
COCCc1nc2c(N)nc3ccccc3c2n1CCCCNS(=O)(=O)N1CCCC1 [Example 229] | 0.0001 | 0.1 |  | 
CCOC(=O)C1CCN(S(=O)(=O)NCCCCn2c(CCOC)nc3c(N)nc4ccccc4c32)CC1 [Example 227] | 0.001 | > 10 |  | 
COCCc1nc2c(N)nc3ccccc3c2n1CCCCNS(=O)(=O)c1c(C)noc1C [Example 123] | 0.0001 | 10 |  | 
CCCCc1nc2c(N)nc3ccccc3c2n1CCCCNS(=O)(=O)c1sc(NC(C)=O)nc1C [Example 77] | 0.001 | 1 |  | 
COCCc1nc2c(N)nc3ccccc3c2n1CCCCNS(=O)(=O)NCc1ccccc1 [Example 231] | 0.0001 | 1 |  | 
COCCc1nc2c(N)nc3ccccc3c2n1CCCCNS(=O)(=O)c1ccc(C)cc1 [Example 159] | 0.0001 | 0.1 |  | 
CCCCc1nc2c(N)nc3ccccc3c2n1CCCCNS(C)(=O)=O [Example 36] |  |  | 0.0015 | 3.33
Nc1nc2c(c3c1ncn3CCCCNS(=O)(=O)c1cccc3cccnc13)CCCC2 [Example 69] | 10 | > 30 |  | 
Nc1nc2c(c3c1ncn3CCCCNS(=O)(=O)/C=C/c1ccccc1)CCCC2 [Example 68] | 10 | > 30 |  | 
CCCCc1ccc(S(=O)(=O)NCCCCn2c(CCCC)nc3c(N)nc4ccccc4c32)cc1 [Example 98] | 1 | > 10 |  | 
CCCCc1nc2c(N)nc3ccccc3c2n1CCNS(=O)(=O)c1ccc(Cl)c(Cl)c1 [Example 22] | 0.37 | > 30 |  | 

SMILES | minimal effective concentration (interferon (α); Homo sapiens, PBMC) [µM] | minimal effective concentration ([1]; Homo sapiens, PBMC) [µM] | minimal effective concentration (interferon (α)) [µM] | minimal effective concentration [1] [µM]
CCCCc1nc2c(N)nc3ccccc3c2n1CCCCNS(=O)(=O)c1cc(Br)ccc1OC [Example 105] |  |  | 1 | 10
CCCCc1nc2c(N)nc3ccccc3c2n1CCCCNS(=O)(=O)c1ccc(OC)cc1 [Example 37] | 0.01 | 1.11 |  | 
CCCS(=O)(=O)NCCCCn1c(CCOC)nc2c(N)nc3c(c21)CCCC3 [Example 208] | 0.0001 | 1 |  | 
CCCCc1nc2c(N)nc3ccccc3c2n1CCCCNS(=O)(=O)c1ccc(Cl)c(Cl)c1 [Example 48] | 0.37 | 10 |  | 
CCCCc1nc2c(N)nc3ccccc3c2n1CCCCNS(=O)(=O)c1cccs1 [Example 44] |  |  | 0.0015 | 1.11
CCCCc1nc2c(N)nc3ccccc3c2n1CCCCNS(=O)(=O)c1cc(Br)ccc1OC [Example 52] |  | 10 | 0.12 | 
CCCCc1nc2c(N)nc3ccccc3c2n1CCNS(=O)(=O)c1ccccc1 [Example 20] | 0.12 | 3.33 |  | 
CCCCc1nc2c(N)nc3ccccc3c2n1CCNS(=O)(=O)c1ccc2ccccc2c1 [Example 32] | 1.11 | > 30 |  | 
CCCCc1nc2c(N)nc3ccccc3c2n1CCCCNS(=O)(=O)c1ccc([N+](=O)[O-])cc1 [Example 88] | 0.01 | 1 |  | 
COCCc1nc2c(N)nc3ccccc3c2n1CCCCNS(=O)(=O)c1ccccc1F [Example 120] | 0.0001 | 1 |  | 
COCCc1nc2c(N)nc3ccccc3c2n1CCCCNS(=O)(=O)c1ccc(S(C)(=O)=O)cc1 [Example 161] | 0.01 | 10 |  | 
CCCCc1nc2c(N)nc3ccccc3c2n1CCCCNS(=O)(=O)c1cccc(C(F)(F)F)c1 [Example 80] | 1 | 10 |  | 
CCCCc1nc2c(N)nc3ccccc3c2n1CCCCNS(=O)(=O)c1ccc(Br)s1 [Example 99] | 0.1 | 10 |  | 
CCCCc1nc2c(N)nc3ccccc3c2n1CCNS(=O)(=O)c1ccc(C(C)(C)C)cc1 [Example 25] | 3.33 | > 30 |  | 
CCCCc1nc2c(N)nc3ccccc3c2n1CCCCNS(=O)(=O)c1c(C(C)C)cc(C(C)C)cc1C(C)C [Example 76] | > 10 | > 10 |  | 
Nc1nc2c(c3c1ncn3CCCCNS(=O)(=O)c1ccc(Cl)c(Cl)c1)CCCC2 [Example 60] | > 30 | > 30 |  | 
CCOCc1nc2c(N)nc3ccccc3c2n1CCNS(C)(=O)=O [Example 108] | 0.1 | 10 |  | 
Cc1ccc(S(=O)(=O)NCCCCn2cnc3c(N)nc4c(c32)CCCC4)cc1 [Example 64] | 3.33 | > 30 |  | 
CCCCc1nc2c(N)nc3c(c2n1CCCCNS(C)(=O)=O)CCCC3 [Example 202] | 0.0001 | 1 |  | 
